# Reference: patent US20090253126A1, “Biomarker Detection Assays” (ASTRAZENECA AB, priority 2004, published 2009)
# How the values were obtained:
# [1] = system: Math1 transcript; assay: Detection of Math1 transcript by quantitative real-time PCR in duodenum of treated rats; format: in vivo; conditions: at earlier time points and at lower dose; Han Wistar rats, intraperitoneally, bid for 5 days
# Experimental: (§1) Using gene expression profiling we detected several deregulated factors that are consistent with Hes-1 KO data. We confirmed the up-regulation of ADN mRNA in intestinal tissue by DBZ and BZ treatment but not AS treatment. […] This up-regulation preceded the appearance of goblet cell metaplasia in the crypts.
# (§2) Compounds with varying potency for modulating the Notch1 pathway and causing intestinal metaplasia were injected intraperitoneally into rats twice daily for 5 days at a concentration of 10 μmol/kg, 30 μmol/kg and 100 μmol/kg. A section of duodenum was taken from untreated rats and those treated with compound. Samples were immediately frozen in liquid nitrogen then placed in a freezer maintained at −80° C. for preservation. […]
# (§3) Quantitative real-time PCR (QRT-PCR) was performed by creating a standard curve assaying the gene of interest at known cDNA quantities of 50 ng, 25 ng, 8.33 ng, 2.76 ng, 0.910 ng and 0.154 ng. […] Biosource International (Camarillo, Calif.) synthesized oligonucleotide primers and fluorescence resonance energy transfer (FRET) probes. […] The raw data were applied to the standard curve and quantities were extrapolated using Prism by GraphPad Software (San Diego, Calif.). These quantities were then transformed to express fold change relative to the vehicle control (VC).
# [2] = system: Notch signal; conditions: cited from earlier work
# [3] = system: ADN mRNA; assay: Gene expression profiling / QRT-PCR of adipsin (ADN) mRNA in intestinal tissue of treated rats; format: in vivo; conditions: Han Wistar rats, intraperitoneally, 10, 30 and 100 μmol/kg/bid for 5 days
# Experimental: as §1, §2, §3
structure (smiles),measurement,setting,value
C[C@H](NC(=O)Cc1cc(F)cc(F)c1)C(=O)N[C@@H]1C(=O)N(C)c2ccccc2-c2ccccc21 [DBZ],induction of Math1 compared with ADN,[1],markedly higher than ADN
same,Notch signal interruption,[2],known to interrupt the Notch signal
same,up-regulation of ADN mRNA in intestinal tissue,[3],up-regulation
